The source of these data is patent publication US20170319570A1, “Treatment of Multiple Sclerosis With Combination of Laquinimod and Dimethyl Fumarate” (Teva Pharmaceutical Industries, Ltd., priority 2012, published 2017).

The subject of one series is RRMS patients. The settings on record: Phase 2B trial; cited from earlier work.
In a further series the test system is MOG-induced EAE. Kind of series: MOG-induced EAE, laquinimod alone or with add on DMF (Example 1A). Type of series: in vivo, mouse. The settings on record: oral QD.
Another series concerns MOG peptide induced EAE. The settings on record: cited from earlier work.
The next series relates to MOG induced EAE. As to the kind of experiment: MOG-induced EAE, laquinimod in combination with DMF (Example 1B). The settings on record: Day 1 to 30, dead or moribund/total. Type of series: in vivo, mouse.
The conditions of series [1]: in vivo; cited from earlier work.

As for `COC(=O)/C=C/C(=O)OC` [DMF, Dimethyl (E)-but-2-Enedioate], in the series on RRMS patients, the annualized relapse rate result is on record as “non-significant decrease”; the “new gadolinium enhancing lesions, T1 and T2 lesions” value is listed as “significant decreases”. Also, the “effectiveness on disease severity” value in the series on MOG-induced EAE is listed as “moderately effective”. Also, in the series with MOG peptide induced EAE (MOG peptide induced EAE), the “plasma levels of IL-10” value is reported as “increased”. For the same compound, in the series on MOG peptide induced EAE (during MOG peptide induced EAE), the glial inflammation result is listed as “reduced”.
On to `CCN(C(=O)c1c(O)c2c(Cl)cccc2n(C)c1=O)c1ccccc1` [Laquinimod], for which the Mortality in the series on MOG induced EAE (Group 2: laquinimod 5 mg/kg/day gavage qd), in the series on MOG induced EAE (Group 3: laquinimod 10 mg/kg/day gavage qd) and in the series on MOG induced EAE (Group 4: laquinimod 25 mg/kg/day gavage qd) was 0/15 each time. In addition, the oral bioavailability entry in series [1] is “high”. The “effectiveness on disease severity” value with MOG-induced EAE (0.06 mg/kg laquinimod alone) is listed as “moderately effective”.
